# Test results reported in BindingDB's records for doi:10.1016/j.bmc.2007.01.021 (Polish Academy of Sciences, 2007).
# Target: Thymidylate synthase (Mus musculus, UniProt P07607)
# Experiment: Inhibition of mouse thymidylate synthase in mouse L1210 cells
# Thymidylate synthase, sequence (P07607 whole entry): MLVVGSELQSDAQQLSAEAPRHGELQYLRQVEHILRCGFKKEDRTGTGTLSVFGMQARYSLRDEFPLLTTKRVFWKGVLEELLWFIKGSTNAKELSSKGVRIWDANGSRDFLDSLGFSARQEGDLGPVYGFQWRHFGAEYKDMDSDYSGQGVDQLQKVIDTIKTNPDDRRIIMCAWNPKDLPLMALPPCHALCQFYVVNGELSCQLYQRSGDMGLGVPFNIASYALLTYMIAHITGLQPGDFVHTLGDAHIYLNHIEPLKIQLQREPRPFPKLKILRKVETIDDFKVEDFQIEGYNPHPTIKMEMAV
row,Ki,Structure (SMILES)
1,128 nM,O=c1[nH]c(=O)n([C@H]2C[C@H](O)[C@@H](OP(=O)(O)O)O2)cc1I
2,309 nM,O=c1[nH]c(=O)n([C@H]2C[C@H](O)[C@@H](OP(=O)(O)O)O2)cc1O
3,660 nM,O=c1[nH]c(=O)n([C@H]2C[C@H](O)[C@@H](OP(=O)(O)O)O2)cc1Br
4,138 nM,Cc1cn([C@H]2C[C@H](O)[C@@H](OP(=O)(O)O)O2)c(=O)[nH]c1=O

# Further lines, the molecule ahead of its results:
row,Structure (SMILES),Ki
1,O=c1[nH]c(=O)n([C@H]2C[C@H](O)[C@@H](OP(=O)(O)O)O2)cc1CO,269 nM
2,CCc1cn([C@H]2C[C@H](O)[C@@H](OP(=O)(O)O)O2)c(=O)[nH]c1=O,28.1 nM
3,O=c1[nH]c(=O)n([C@H]2C[C@H](O)[C@@H](OP(=O)(O)O)O2)cc1[N+](=O)[O-],2.57 nM
4,CCCc1cn([C@H]2C[C@H](O)[C@@H](OP(=O)(O)O)O2)c(=O)[nH]c1=O,8.12 nM
